Results as given in patent publication US20260356819A1, “OXOISOINDOLINYL-SUBSTITUTED […] DERIVATIVE AND USE THEREOF” (GLUETACS THERAPEUTICS (SHANGHAI) CO., LTD., priority 2023, published 2026).

Key:
Type in all cases: cell-based
Settings in all cases: compounds at 50 nM and 500 nM
IKZF3 = molecular target: T1, IKZF3 (Homo sapiens, UniProt Q96SW2+Q9UKT9); test: Western blot degradation of IKZF3 in hPBMCs (24 h)
T1 construct: The supernatant was aspirated as the extracted total cell protein; endogenous in cells; host or cells: human peripheral blood mononuclear cells (hPBMCs)
Procedure, shortened: (§1)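 hPBMCs (1×10^6 cells/mL) were treated with compound at 50 nM and 500 nM for 24 h, lysed in RIPA with protease inhibitors and analysed by SDS-PAGE/Western blot. Band grayscale, normalised to internal control, gave protein remaining (%); DC50 estimated versus DMSO bands.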

WEE1 = molecular target: T2, WEE1 (Homo sapiens, UniProt P30291+Q96SW2); test: Western blot degradation of WEE1 in hPBMCs (24 h)
T2 construct: The supernatant was aspirated as the extracted total cell protein; endogenous in cells; host or cells: human peripheral blood mononuclear cells (hPBMCs)
Procedure, shortened: as §1

CK1α = molecular target: T3, CK1α (Homo sapiens, UniProt P48729+Q96SW2); test: Western blot degradation of CK1α in hPBMCs (24 h)
T3 construct: The supernatant was aspirated as the extracted total cell protein; endogenous in cells; host or cells: human peripheral blood mononuclear cells (hPBMCs)
Procedure, shortened: as §1

IKZF2 = molecular target: T4, IKZF2 (Homo sapiens, UniProt Q96SW2+Q9UKS7); test: Western blot degradation of IKZF2 in hPBMCs (24 h)
T4 construct: The supernatant was aspirated as the extracted total cell protein; endogenous in cells; host or cells: human peripheral blood mononuclear cells (hPBMCs)
Procedure, shortened: as §1

IKZF1 = molecular target: T5, IKZF1 (Homo sapiens, UniProt Q13422+Q96SW2); test: Western blot degradation of IKZF1 in hPBMCs (24 h)
T5 construct: The supernatant was aspirated as the extracted total cell protein; endogenous in cells; host or cells: human peripheral blood mononuclear cells (hPBMCs)
Procedure, shortened: as §1

GSPT1 = molecular target: T6, GSPT1 (Homo sapiens, UniProt P15170+Q96SW2); test: Western blot degradation of GSPT1 in hPBMCs (24 h)
T6 construct: The supernatant was aspirated as the extracted total cell protein; endogenous in cells; host or cells: human peripheral blood mononuclear cells (hPBMCs)
Procedure, shortened: as §1

T3 sequence (P48729 whole entry): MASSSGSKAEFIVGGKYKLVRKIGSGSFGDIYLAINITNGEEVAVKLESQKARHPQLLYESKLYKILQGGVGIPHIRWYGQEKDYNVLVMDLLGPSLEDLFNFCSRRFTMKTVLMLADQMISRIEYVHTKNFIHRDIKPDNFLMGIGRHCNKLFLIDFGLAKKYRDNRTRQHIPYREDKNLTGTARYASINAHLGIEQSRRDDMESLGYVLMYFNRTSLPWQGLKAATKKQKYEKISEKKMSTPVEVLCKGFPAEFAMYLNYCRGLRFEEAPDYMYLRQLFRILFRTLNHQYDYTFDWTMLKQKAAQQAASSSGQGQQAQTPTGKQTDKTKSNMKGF
T3 sequence (Q96SW2 whole entry): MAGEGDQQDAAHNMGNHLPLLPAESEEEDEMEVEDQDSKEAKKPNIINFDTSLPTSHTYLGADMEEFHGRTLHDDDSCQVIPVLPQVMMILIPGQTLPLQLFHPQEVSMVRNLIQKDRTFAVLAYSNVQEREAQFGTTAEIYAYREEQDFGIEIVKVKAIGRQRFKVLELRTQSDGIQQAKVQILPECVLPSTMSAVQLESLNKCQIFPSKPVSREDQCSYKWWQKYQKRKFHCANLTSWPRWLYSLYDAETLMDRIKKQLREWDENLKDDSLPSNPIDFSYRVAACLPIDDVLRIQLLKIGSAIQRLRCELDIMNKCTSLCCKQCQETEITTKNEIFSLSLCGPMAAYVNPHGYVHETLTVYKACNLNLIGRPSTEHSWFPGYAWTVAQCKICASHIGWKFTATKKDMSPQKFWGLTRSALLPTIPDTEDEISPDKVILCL
T3 sequence (Q16531 whole entry partner): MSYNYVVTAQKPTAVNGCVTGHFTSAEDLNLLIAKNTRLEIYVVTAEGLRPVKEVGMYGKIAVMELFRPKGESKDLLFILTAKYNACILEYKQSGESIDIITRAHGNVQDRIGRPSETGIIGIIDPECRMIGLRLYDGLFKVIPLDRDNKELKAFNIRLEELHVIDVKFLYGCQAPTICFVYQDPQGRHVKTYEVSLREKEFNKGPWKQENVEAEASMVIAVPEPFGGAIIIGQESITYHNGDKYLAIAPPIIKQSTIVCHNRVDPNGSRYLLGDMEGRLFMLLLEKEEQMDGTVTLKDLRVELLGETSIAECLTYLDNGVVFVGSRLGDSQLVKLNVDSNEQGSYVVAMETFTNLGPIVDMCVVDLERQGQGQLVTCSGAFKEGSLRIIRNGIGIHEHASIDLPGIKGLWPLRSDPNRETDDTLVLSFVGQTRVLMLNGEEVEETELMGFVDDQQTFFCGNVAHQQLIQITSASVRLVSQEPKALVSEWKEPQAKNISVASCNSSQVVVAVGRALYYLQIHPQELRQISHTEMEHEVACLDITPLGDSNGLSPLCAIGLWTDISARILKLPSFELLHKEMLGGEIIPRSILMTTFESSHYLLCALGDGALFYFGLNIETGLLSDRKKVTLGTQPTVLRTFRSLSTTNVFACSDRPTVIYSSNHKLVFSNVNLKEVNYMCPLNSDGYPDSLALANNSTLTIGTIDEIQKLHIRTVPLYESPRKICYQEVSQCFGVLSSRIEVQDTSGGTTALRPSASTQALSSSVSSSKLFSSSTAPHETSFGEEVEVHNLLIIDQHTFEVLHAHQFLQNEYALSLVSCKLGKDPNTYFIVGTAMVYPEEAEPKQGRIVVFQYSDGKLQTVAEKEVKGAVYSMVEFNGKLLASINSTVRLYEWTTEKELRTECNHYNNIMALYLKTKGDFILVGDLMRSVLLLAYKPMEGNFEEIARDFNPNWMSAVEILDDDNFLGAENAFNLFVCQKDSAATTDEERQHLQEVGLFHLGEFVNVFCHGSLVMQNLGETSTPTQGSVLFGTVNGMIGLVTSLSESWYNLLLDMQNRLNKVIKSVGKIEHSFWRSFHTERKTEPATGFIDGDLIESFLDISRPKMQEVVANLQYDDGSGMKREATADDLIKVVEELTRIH
T1 sequence (Q9UKT9 whole entry): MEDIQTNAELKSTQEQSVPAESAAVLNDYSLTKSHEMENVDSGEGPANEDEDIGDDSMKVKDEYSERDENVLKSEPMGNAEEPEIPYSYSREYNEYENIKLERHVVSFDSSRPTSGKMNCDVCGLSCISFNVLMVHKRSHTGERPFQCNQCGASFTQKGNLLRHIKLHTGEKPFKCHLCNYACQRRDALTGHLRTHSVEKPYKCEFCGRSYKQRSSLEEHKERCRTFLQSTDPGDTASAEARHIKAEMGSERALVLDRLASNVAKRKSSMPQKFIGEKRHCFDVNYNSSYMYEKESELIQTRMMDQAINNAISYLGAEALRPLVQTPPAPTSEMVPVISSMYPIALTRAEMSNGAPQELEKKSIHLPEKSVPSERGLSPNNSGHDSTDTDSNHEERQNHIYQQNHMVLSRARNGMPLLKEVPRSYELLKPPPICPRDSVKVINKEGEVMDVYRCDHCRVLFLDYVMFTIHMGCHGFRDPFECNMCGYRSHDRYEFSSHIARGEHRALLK
T1 sequence (Q96SW2 whole entry): as the sequence (Q96SW2 whole entry) above
T1 sequence (Q16531 whole entry partner): as the sequence (Q16531 whole entry partner) above
T6 sequence (P15170 whole entry): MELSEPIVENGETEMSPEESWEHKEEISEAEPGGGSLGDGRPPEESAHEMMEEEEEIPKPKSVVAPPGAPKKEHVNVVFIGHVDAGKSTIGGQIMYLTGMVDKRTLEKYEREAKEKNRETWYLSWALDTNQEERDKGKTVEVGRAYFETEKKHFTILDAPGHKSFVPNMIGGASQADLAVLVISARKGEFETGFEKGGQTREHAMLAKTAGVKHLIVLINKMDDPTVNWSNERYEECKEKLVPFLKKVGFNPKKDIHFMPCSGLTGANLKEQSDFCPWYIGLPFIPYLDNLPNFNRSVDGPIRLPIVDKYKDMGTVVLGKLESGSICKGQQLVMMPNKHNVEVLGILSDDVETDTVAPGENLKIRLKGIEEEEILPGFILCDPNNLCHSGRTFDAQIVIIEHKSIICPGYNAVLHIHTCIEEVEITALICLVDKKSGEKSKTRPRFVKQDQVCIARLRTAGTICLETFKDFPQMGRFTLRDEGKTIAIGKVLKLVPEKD
T6 sequence (Q96SW2 whole entry): as the sequence (Q96SW2 whole entry) above
T6 sequence (Q16531 whole entry partner): as the sequence (Q16531 whole entry partner) above
T2 sequence (P30291 whole entry): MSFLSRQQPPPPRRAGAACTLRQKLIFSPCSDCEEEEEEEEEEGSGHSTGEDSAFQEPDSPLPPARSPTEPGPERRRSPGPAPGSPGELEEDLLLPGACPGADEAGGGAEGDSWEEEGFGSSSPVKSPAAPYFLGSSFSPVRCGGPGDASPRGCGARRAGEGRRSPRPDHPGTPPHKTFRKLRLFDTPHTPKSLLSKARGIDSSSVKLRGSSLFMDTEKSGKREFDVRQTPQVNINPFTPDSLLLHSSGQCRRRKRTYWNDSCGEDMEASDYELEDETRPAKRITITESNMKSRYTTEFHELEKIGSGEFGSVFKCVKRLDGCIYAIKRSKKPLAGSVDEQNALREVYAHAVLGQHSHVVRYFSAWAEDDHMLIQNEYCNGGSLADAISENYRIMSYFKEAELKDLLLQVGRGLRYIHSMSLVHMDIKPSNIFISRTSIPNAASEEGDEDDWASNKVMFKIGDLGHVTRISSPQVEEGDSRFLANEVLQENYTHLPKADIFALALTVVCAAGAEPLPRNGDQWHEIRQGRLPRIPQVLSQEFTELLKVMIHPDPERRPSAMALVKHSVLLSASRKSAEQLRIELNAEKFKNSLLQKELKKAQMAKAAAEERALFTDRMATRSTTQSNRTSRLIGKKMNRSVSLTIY
T2 sequence (Q96SW2 whole entry): as the sequence (Q96SW2 whole entry) above
T2 sequence (Q16531 whole entry partner): as the sequence (Q16531 whole entry partner) above
T4 sequence (Q9UKS7 whole entry): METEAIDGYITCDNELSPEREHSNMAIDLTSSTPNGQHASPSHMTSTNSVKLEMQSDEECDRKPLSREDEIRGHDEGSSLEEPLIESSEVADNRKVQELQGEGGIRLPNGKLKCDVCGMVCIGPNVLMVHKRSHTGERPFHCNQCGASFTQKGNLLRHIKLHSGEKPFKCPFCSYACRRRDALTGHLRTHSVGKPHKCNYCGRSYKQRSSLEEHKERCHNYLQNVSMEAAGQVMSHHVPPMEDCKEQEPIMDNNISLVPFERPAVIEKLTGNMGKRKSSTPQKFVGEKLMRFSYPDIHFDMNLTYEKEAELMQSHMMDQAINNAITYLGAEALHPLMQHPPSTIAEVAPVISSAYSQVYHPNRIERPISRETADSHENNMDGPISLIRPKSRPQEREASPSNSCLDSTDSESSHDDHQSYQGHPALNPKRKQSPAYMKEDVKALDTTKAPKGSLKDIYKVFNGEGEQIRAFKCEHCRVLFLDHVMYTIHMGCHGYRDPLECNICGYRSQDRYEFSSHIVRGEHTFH
T4 sequence (Q96SW2 whole entry): as the sequence (Q96SW2 whole entry) above
T4 sequence (Q16531 whole entry partner): as the sequence (Q16531 whole entry partner) above

Structure (SMILES) | IKZF3 substrate protein remaining % (IKZF3) | WEE1 substrate protein remaining % (WEE1) | CK1α substrate protein remaining % (CK1α) | IKZF2 substrate protein remaining % (IKZF2) | IKZF1 substrate protein remaining % (IKZF1) | GSPT1 substrate protein remaining % (GSPT1)
Cc1sc2ncnc(N3CCCN(Cc4ccc5c(c4)C(=O)N(N4CCC(=O)NC4=O)C5=O)CC3)c2c1C [GT-08095, 5-((4-(5,6-dimethylthieno[2,3-d]pyrimidin-4-yl)-1,4-diazepan-1-yl)methyl)-2-(2,4-dioxotetrahydropyrimidin-1(2H)-yl)isoindoline-1,3-dione] | B (80%< substrate protein remaining % ≤100%) | A (0% ≤ substrate protein remaining % ≤80%) | A (0% ≤ substrate protein remaining % ≤80%) | B (80%< substrate protein remaining % ≤100%) | B (80%< substrate protein remaining % ≤100%) | B (80%< substrate protein remaining % ≤100%)
O=C1CCN(N2C(=O)c3ccc(CN4CCN(c5ncnc6sc(Br)cc56)CC4)cc3C2=O)C(=O)N1 [GT-08096, 5-((4-(6-bromothieno[2,3-d]pyrimidin-4-yl)piperazin-1-yl)methyl)-2-(2,4-dioxotetrahydropyrimidin-1(2H)-yl)isoindoline-1,3-dione] | B (80%< substrate protein remaining % ≤100%) | A (0% ≤ substrate protein remaining % ≤80%) | A (0% ≤ substrate protein remaining % ≤80%) | B (80%< substrate protein remaining % ≤100%) | B (80%< substrate protein remaining % ≤100%) | A (0% ≤ substrate protein remaining % ≤80%)
O=C1CCN(N2C(=O)c3ccc(CN4CCN(c5ncnc6sc(-c7ccccc7)cc56)CC4)cc3C2=O)C(=O)N1 [GT-08097, 2-(2,4-dioxotetrahydropyrimidin-1(2H)-yl)-5-((4-(6-phenylthieno[2,3-d]pyrimidin-4-yl)piperazin-1-yl)methyl)isoindoline-1,3-dione] | B (80%< substrate protein remaining % ≤100%) | A (0% ≤ substrate protein remaining % ≤80%) | A (0% ≤ substrate protein remaining % ≤80%) | B (80%< substrate protein remaining % ≤100%) | B (80%< substrate protein remaining % ≤100%) | A (0% ≤ substrate protein remaining % ≤80%)
O=C1CCN(N2C(=O)c3ccc(CN4CCN(c5ncnc6scc(-c7ccccc7)c56)CC4)cc3C2=O)C(=O)N1 [GT-08098, 2-(2,4-dioxotetrahydropyrimidin-1(2H)-yl)-5-((4-(5-phenylthieno[2,3-d]pyrimidin-4-yl)piperazin-1-yl)methyl)isoindoline-1,3-dione] | B (80%< substrate protein remaining % ≤100%) | B (80%< substrate protein remaining % ≤100%) | B (80%< substrate protein remaining % ≤100%) | B (80%< substrate protein remaining % ≤100%) | B (80%< substrate protein remaining % ≤100%) | A (0% ≤ substrate protein remaining % ≤80%)
Cc1nc(N2CCN(Cc3ccc4c(c3)C(=O)N(N3CCC(=O)NC3=O)C4=O)CC2)c2c(-c3ccccc3)csc2n1 [GT-08099, 2-(2,4-dioxotetrahydropyrimidin-1(2H)-yl)-5-((4-(2-methyl-5-phenylthieno[2,3-d]pyrimidin-4-yl)piperazin-1-yl)methyl)isoindoline-1,3-dione] | B (80%< substrate protein remaining % ≤100%) | B (80%< substrate protein remaining % ≤100%) | B (80%< substrate protein remaining % ≤100%) | B (80%< substrate protein remaining % ≤100%) | B (80%< substrate protein remaining % ≤100%) | A (0% ≤ substrate protein remaining % ≤80%)
O=C1CCN(N2C(=O)c3ccc(CN4CCN(c5ncnc6sc7c(c56)CCC7)CC4)cc3C2=O)C(=O)N1 [GT-08103, 5-((4-(6,7-dihydro-5H-cyclopenta[4,5]thieno[2,3-d]pyrimidin-4-yl)piperazin-1-yl)methyl)-2-(2,4-dioxotetrahydropyrimidin-1(2H)-yl)isoindoline-1,3-dione] | A (0% ≤ substrate protein remaining % ≤80%) | B (80%< substrate protein remaining % ≤100%) | B (80%< substrate protein remaining % ≤100%) | A (0% ≤ substrate protein remaining % ≤80%) | B (80%< substrate protein remaining % ≤100%) | B (80%< substrate protein remaining % ≤100%)
Cc1nc(N2CCN(Cc3ccc4c(c3)C(=O)N(N3CCC(=O)NC3=O)C4=O)CC2)c2c3c(sc2n1)CCC3 [GT-08104, 2-(2,4-dioxotetrahydropyrimidin-1(2H)-yl)-5-((4-(2-methyl-6,7-dihydro-5H-cyclopenta[4,5]thieno[2,3-d]pyrimidin-4-yl)piperazin-1-yl)methyl)isoindoline-1,3-dione] | A (0% ≤ substrate protein remaining % ≤80%) | A (0% ≤ substrate protein remaining % ≤80%) | B (80%< substrate protein remaining % ≤100%) | A (0% ≤ substrate protein remaining % ≤80%) | B (80%< substrate protein remaining % ≤100%) | A (0% ≤ substrate protein remaining % ≤80%)
O=C1CCN(N2C(=O)c3ccc(CN4CCN(c5ncc6ccsc6n5)CC4)cc3C2=O)C(=O)N1 [GT-08105, 2-(2,4-dioxotetrahydropyrimidin-1(2H)-yl)-5-((4-(thieno[2,3-d]pyrimidin-2-yl)piperazin-1-yl)methyl)isoindoline-1,3-dione] | A (0% ≤ substrate protein remaining % ≤80%) | B (80%< substrate protein remaining % ≤100%) | B (80%< substrate protein remaining % ≤100%) | A (0% ≤ substrate protein remaining % ≤80%) | B (80%< substrate protein remaining % ≤100%) | A (0% ≤ substrate protein remaining % ≤80%)
O=C1CCN(N2C(=O)c3ccc(CN4CCC(c5ncnc6sccc56)CC4)cc3C2=O)C(=O)N1 [GT-08106, 2-(2,4-dioxotetrahydropyrimidin-1(2H)-yl)-5-((4-(thieno[2,3-d]pyrimidin-4-yl)piperidin-1-yl)methyl)isoindoline-1,3-dione] | B (80%< substrate protein remaining % ≤100%) | A (0% ≤ substrate protein remaining % ≤80%) | B (80%< substrate protein remaining % ≤100%) | B (80%< substrate protein remaining % ≤100%) | B (80%< substrate protein remaining % ≤100%) | A (0% ≤ substrate protein remaining % ≤80%)
Cc1cc2c(C3CCN(Cc4ccc5c(c4)C(=O)N(N4CCC(=O)NC4=O)C5=O)CC3)ncnc2s1 [GT-08107, 2-(2,4-dioxotetrahydropyrimidin-1(2H)-yl)-5-((4-(6-methylthieno[2,3-d]pyrimidin-4-yl)piperidin-1-yl)methyl)isoindoline-1,3-dione] | A (0% ≤ substrate protein remaining % ≤80%) | A (0% ≤ substrate protein remaining % ≤80%) | A (0% ≤ substrate protein remaining % ≤80%) | A (0% ≤ substrate protein remaining % ≤80%) | A (0% ≤ substrate protein remaining % ≤80%) | A (0% ≤ substrate protein remaining % ≤80%)
O=C1CCN(N2C(=O)c3ccc(CN4CCC(c5ncnc6sc(-c7ccccc7)cc56)CC4)cc3C2=O)C(=O)N1 [GT-08108, 2-(2,4-dioxotetrahydropyrimidin-1(2H)-yl)-5-((4-(6-phenylthieno[2,3-d]pyrimidin-4-yl)piperidin-1-yl)methyl)isoindoline-1,3-dione] | A (0% ≤ substrate protein remaining % ≤80%) | A (0% ≤ substrate protein remaining % ≤80%) | A (0% ≤ substrate protein remaining % ≤80%) | A (0% ≤ substrate protein remaining % ≤80%) | A (0% ≤ substrate protein remaining % ≤80%) | A (0% ≤ substrate protein remaining % ≤80%)
O=C1CCN(N2C(=O)c3ccc(CN4CCC(c5ncnc6scc(-c7ccccc7)c56)CC4)cc3C2=O)C(=O)N1 [GT-08109, 2-(2,4-dioxotetrahydropyrimidin-1(2H)-yl)-5-((4-(5-phenylthieno[2,3-d]pyrimidin-4-yl)piperidin-1-yl)methyl)isoindoline-1,3-dione] | A (0% ≤ substrate protein remaining % ≤80%) | A (0% ≤ substrate protein remaining % ≤80%) | A (0% ≤ substrate protein remaining % ≤80%) | A (0% ≤ substrate protein remaining % ≤80%) | A (0% ≤ substrate protein remaining % ≤80%) | A (0% ≤ substrate protein remaining % ≤80%)
